{"source": "paper PMC9386376", "about": "“Discovery of spirooxindole-derived small-molecule compounds as novel HDAC/MDM2 dual inhibitors and investigation of their anticancer activity” (Frontiers in Oncology, 2022)", "key": {"HDAC3": {"target": "HDAC3 (Homo sapiens, UniProt O15379)", "sequence (O15379 whole entry, canonical isoform)": "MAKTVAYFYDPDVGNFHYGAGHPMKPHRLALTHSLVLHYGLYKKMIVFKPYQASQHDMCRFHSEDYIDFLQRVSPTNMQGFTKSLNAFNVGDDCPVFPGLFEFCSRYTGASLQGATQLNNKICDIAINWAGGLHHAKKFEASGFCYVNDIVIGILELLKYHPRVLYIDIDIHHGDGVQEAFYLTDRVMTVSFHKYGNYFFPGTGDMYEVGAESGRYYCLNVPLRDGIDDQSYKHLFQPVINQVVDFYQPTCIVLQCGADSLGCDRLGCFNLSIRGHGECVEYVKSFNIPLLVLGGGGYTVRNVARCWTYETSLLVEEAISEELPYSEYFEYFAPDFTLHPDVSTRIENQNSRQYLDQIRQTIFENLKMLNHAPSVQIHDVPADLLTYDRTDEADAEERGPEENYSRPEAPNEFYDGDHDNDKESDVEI", "sequence (Q9Y618 395-489 partner limits assumed)": "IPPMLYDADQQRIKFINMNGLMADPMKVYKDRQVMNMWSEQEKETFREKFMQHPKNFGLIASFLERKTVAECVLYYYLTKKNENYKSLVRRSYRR", "experiment": "HDAC isoform selectivity, HDAC3", "type": "biochemical", "details": "HDAC subtype panel"}, "HDAC5": {"target": "HDAC5 (Homo sapiens, UniProt Q9UQL6)", "sequence (Q9UQL6 whole entry, canonical isoform)": "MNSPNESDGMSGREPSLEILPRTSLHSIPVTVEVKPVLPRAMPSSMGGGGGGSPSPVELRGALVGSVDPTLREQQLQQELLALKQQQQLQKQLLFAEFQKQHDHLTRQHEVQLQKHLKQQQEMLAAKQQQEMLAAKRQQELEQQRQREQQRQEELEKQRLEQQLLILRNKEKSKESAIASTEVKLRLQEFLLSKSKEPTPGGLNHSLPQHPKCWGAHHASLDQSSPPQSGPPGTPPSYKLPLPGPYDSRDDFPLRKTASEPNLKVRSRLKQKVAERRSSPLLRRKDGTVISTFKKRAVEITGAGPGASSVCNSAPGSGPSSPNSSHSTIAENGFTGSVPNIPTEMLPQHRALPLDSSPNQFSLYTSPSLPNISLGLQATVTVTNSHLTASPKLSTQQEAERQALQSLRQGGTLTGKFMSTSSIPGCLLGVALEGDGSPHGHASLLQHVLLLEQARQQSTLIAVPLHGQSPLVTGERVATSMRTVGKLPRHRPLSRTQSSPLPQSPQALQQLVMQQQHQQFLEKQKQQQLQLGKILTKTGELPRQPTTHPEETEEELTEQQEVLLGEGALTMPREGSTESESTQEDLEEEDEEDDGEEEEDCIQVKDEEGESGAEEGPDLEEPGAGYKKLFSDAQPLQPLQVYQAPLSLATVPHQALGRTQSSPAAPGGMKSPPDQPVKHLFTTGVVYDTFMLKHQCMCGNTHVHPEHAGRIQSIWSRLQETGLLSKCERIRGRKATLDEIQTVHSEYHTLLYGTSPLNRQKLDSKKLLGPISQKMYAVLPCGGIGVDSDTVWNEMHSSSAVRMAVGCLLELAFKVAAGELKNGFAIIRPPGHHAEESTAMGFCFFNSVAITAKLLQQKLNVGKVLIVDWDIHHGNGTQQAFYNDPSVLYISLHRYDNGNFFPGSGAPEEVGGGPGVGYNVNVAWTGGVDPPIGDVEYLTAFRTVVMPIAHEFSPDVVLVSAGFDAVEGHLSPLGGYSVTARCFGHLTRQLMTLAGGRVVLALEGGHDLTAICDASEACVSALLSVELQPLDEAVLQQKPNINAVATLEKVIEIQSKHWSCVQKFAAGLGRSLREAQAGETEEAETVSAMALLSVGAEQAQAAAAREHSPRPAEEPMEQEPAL", "experiment": "HDAC isoform selectivity, HDAC5", "type": "biochemical", "details": "HDAC subtype panel"}, "HDAC6": {"target": "T1, HDAC6 (Homo sapiens, UniProt Q9UBN7)", "T1 sequence (Q9UBN7 1-1215)": "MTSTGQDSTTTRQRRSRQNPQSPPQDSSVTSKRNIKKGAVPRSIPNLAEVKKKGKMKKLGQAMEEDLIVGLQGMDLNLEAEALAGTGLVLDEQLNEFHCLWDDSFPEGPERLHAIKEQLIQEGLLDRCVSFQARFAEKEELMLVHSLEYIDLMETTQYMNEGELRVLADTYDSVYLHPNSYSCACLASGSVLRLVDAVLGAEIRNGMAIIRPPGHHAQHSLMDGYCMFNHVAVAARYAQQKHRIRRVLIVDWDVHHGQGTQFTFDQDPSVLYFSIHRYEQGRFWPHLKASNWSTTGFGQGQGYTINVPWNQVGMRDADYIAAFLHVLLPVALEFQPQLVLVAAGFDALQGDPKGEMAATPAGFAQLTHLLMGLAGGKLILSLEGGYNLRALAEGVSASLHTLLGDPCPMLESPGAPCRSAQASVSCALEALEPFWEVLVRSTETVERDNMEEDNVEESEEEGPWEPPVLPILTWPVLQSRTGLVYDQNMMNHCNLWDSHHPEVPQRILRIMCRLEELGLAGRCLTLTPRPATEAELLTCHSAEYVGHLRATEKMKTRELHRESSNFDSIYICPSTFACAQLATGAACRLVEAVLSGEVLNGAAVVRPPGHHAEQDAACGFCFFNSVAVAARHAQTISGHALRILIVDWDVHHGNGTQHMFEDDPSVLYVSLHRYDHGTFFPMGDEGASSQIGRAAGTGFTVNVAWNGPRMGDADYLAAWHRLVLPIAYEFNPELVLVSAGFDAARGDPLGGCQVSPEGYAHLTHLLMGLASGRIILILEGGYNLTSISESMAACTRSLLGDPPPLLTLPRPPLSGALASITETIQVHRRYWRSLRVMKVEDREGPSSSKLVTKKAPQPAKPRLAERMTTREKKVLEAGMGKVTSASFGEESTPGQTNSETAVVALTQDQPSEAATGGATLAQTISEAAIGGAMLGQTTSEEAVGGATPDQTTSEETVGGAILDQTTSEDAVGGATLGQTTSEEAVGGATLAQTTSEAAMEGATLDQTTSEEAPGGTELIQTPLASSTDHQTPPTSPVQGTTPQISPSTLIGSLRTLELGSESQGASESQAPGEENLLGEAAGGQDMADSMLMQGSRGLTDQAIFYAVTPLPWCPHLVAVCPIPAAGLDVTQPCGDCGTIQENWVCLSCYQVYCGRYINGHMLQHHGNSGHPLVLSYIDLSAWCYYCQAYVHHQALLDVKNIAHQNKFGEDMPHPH", "experiment": "HDAC isoform selectivity, HDAC6", "type": "biochemical", "details": "HDAC subtype panel"}, "HDAC10": {"target": "T2, HDAC10 (Homo sapiens, UniProt Q969S8)", "T2 sequence (Q969S8 1-669)": "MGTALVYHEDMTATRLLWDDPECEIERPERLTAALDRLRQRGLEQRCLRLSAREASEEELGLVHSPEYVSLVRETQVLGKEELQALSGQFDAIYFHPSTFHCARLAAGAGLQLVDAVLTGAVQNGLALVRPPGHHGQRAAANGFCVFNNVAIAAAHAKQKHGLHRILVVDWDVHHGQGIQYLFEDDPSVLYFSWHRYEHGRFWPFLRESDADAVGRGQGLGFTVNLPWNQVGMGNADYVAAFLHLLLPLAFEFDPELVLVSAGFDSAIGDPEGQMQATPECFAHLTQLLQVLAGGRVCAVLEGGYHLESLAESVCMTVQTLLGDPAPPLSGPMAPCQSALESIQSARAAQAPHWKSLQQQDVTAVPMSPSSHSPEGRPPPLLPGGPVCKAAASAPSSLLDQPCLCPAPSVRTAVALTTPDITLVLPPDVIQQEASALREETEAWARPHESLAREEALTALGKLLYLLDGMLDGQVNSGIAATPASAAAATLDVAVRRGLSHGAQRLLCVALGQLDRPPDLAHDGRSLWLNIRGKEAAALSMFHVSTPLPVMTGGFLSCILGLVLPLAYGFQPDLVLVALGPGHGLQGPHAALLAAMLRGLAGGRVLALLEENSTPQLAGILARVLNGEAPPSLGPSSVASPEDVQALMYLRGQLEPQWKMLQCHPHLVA", "experiment": "HDAC isoform selectivity, HDAC10", "type": "biochemical", "details": "HDAC subtype panel"}, "MCF-7 cells": {"system": "MCF-7 cells", "experiment": "Annexin V-FITC/PI double staining, flow cytometry", "type": "cell-based, human", "details": "MCF-7, 5.0 μM, 24 h", "experimental": "It was reported that the inactivation of HDAC and/or MDM2 could increase the percentage of apoptosis cells ([85]–[87]). Therefore, three methods were applied to assess the effect of MDM2-HDAC dual inhibitor 11b on the apoptosis of MCF-7 cells. […] Subsequently, the annexin V-FITC/propidium iodide (PI) double staining method was carried out to quantitatively detect the effect of compound 11b on cell apoptosis (Figure 9B).\nCells were collected after incubation, then fixed with 75% ice-cold ethanol and stored at -20°C for 1 h. The cells were then harvested with 0.25% trypsin (without EDTA) and centrifuged at 2000 rpm for 5min. Then, the harvested cells were washed with ice-cold PBS twice and resuspended in 500 μL of 1× binding buffer, which was then added to 5 μL of annexin V-FITC and incubated at room temperature in the dark for 15 min. After adding 10 μL of propidium iodide (PI), the cells were incubated at room temperature in the dark. After another 15 min incubation, the cells were collected and analyzed by flow cytometry."}, "MDM2, p53 in MCF-7 cells": {"system": "MDM2, p53 in MCF-7 cells", "experiment": "Western blot, MDM2 and p53 protein level", "type": "cell-based, human", "details": "MCF-7, 24 h incubation", "experimental": "(§1) The cells were collected and washed with cold PBS twice, then added the protease and phosphatase inhibitors contained lysis buffer. Total cell lysates were prepared in lysis RIPA buffer (Invitrogen, CA, USA) on ice for 30 min, followed by centrifugation at 12000 rpm for 10 min at 4°C. After collecting supernatant, protein concentration was determined by a BCA protein assay. The total proteins were loaded into the 10%-15% SDS-PAGE gel and separated by sodium dodecyl sulfate polyacrylamide gel electrophoresis (PAGE). After electrophoresis, the protein was transferred to the PVDF membranes and rinsed three times in PBST buffer for 10 min each time, then sealed with 5% BSA Buffer for 1h. The membranes were incubated at 4°C for 24 h with primary antibodies and washed with TBST three times. Then incubated at room temperature for 2 h with secondary antibodies (1:10,000). The incubated PVDF membranes were taken out and rinsed with TBST three times. The protein bands were visualized through enhanced chemiluminescence (ECL) WB substrate (Millipore, MA, USA) and analyzed by ChemiScope. The antibodies including p53, MDM2, H4, and GAPDH were purchased from Abcam (Cambridge, MA, USA)."}, "Ac-H4 in MCF-7 cells": {"system": "Ac-H4 in MCF-7 cells", "experiment": "Western blot, acetylation of H4", "type": "cell-based, human", "details": "MCF-7, 24 h", "experimental": "as §1"}}, "note": "Entries after “also recorded” stand apart in the source; their conditions may differ.", "data": [{"smiles": "O=C(CCCCCCC(=O)N1CCC(C(=O)Nc2ccc([C@@H]3[C@H]4CSCN4[C@]4(C(=O)Nc5cc(Cl)ccc54)[C@H]3C(=O)c3ccccc3)cc2)CC1)NO", "note": "[compound 11b, N-(4-((3R,6'S,7'R,7a'S)-6'-benzoyl-6-chloro-2-oxo-1',6',7',7a'-tetrahydro-3'H-spiro[indoline-3,5'-pyrrolo[1,2-c]thiazol]-7'-yl)phenyl)-1-(8-(hydroxyamino)-8-oxooctanoyl)piperidine-4-carboxamide]", "values": [{"measurement": "IC50", "setting": "HDAC3", "value": "115 ± 9", "unit": "nM"}, {"measurement": "IC50", "setting": "HDAC5", "value": "> 10000", "unit": "nM"}, {"measurement": "IC50", "setting": "HDAC6", "value": "120 ± 26", "unit": "nM"}, {"measurement": "IC50", "setting": "HDAC10", "value": "1490 ± 37", "unit": "nM"}, {"measurement": "apoptotic cells", "setting": "MCF-7 cells", "value": 37.36, "unit": "%"}, {"measurement": "protein level of MDM2 and p53 (western blot)", "setting": "MDM2, p53 in MCF-7 cells", "value": "up-regulating the expression of p53; also recorded: increased the expression of p53; also recorded: dose-dependently increased the protein level of MDM2 as well as p53"}, {"measurement": "acetylation level of H4 (Ac-H4, western blot)", "setting": "Ac-H4 in MCF-7 cells", "value": "up-regulating the expression of p53 and Ac-H4; also recorded: increased the expression of p53 and Ac-H4; also recorded: increased acetylation level of H4"}]}]}
